The source of these data is US8742106B2 (Novartis AG, priority 2009, dated 2014).

Each structure is given as a SMILES string.

For test [1], the target named is T1, human orexin 1 receptors (Homo sapiens (Human), UniProt O43613). The experiment in a line: Radioligand Binding Assay II ([3H]-SB649868 competition, cell membranes). To be noted: read-out: binding II hOx1R Kd. The protocol:
(§1) Radioligand Binding Assay II
(§2) For crude cell membrane preparations, cells (CHO, Chinese hamster ovary or HEK, human embryonic kidney) expressing human orexin 1 or human orexin 2 receptors, were washed with HEPES (10 mM, pH 7.5), scraped off the culture plates with the same buffer, and centrifuged at 4° C. for 5 min at 2500×g. The cell pellet was either stored at −80° C. or used directly. Before the experiments, cell membranes were re-suspended in binding assay buffer (10 mM HEPES, 0.5% (w/v) bovine serum albumin, pH 7.5) by homogenisation with a Polytron homogeniser at 50 Hz for 20 s. Cell membranes were also used as made available by commercial providers.
(§3) Bound radioactivity was measured, and data were analysed with the program XLFIT or Graphpad Prism. Protein concentration was determined according to the Bradford/BioRad Protein Assay Kit.
In competition experiments, cell homogenates (150 μl) were incubated in assay buffer (10 mM HEPES, pH 7.5, 0.5% (w/v) bovine serum albumin, 5 mM MgCl2, 1 mM CaCl2, and tween 0.05%) for 1 h at room temperature with about 1 nM of the radioligand [^3H]-SB649868, 66 Ci/mmole, 50 μl), and with various concentrations of compounds of the invention (50 μl) in triplicates; non-specific binding was determined in the presence of almorexant (10 μM). Reactions were terminated by vacuum filtration, 3 washes of ice cold wash buffer (Tris-HCl pH 7.4/10 mM, with NaCl 154 mM). Competition data is expressed in Table 2 as Kd [μM].

Test [2] has as its target T2, human orexin 2 receptors (Homo sapiens (Human), UniProt O43614). The test is described as above. To be noted: read-out: binding II hOx2R Kd. The protocol: as §1, §2, §3
In competition experiments, cell homogenates (150 μl) were incubated in assay buffer (10 mM HEPES, pH 7.5, 0.5% (w/v) bovine serum albumin, 5 mM MgCl2, 1 mM CaCl2, and tween 0.05%) for 1 h at room temperature with about 1 nM of the radioligand [^3H]-SB649868, 66 Ci/mmole, 50 μl), and with various concentrations of compounds of the invention (50 μl) in triplicates; non-specific binding was determined in the presence of almorexant (10 μM). Reactions were terminated by vacuum filtration, 3 washes of ice cold wash buffer (Tris-HCl pH 7.4/10 mM, with NaCl 154 mM).

The target in test [3] is T1, human orexin 1 receptors. The experiment in a line: Calcium Accumulation in Cells (FLIPR), antagonism of orexin A. Type of test: cell-based. The note with it: antagonism of orexin A, Cheng-Prusoff corrected; read-out: FLIPR hOx1R Ki.
The target of test [4] is T2, human orexin 2 receptors. The description is as above. Type of test: cell-based. To be noted: antagonism of orexin A, Cheng-Prusoff corrected; read-out: FLIPR hOx2R Ki. A digest of the protocol: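 Cells expressing human orexin 2 receptor, loaded with Fluo4-AM (2 μM) plus probenecid (0.1 mM) for 1 h, then washed. Antagonism read as inhibition of the orexin A calcium fluorescence signal (FLIPR).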

T2 sequence (O43614 whole entry): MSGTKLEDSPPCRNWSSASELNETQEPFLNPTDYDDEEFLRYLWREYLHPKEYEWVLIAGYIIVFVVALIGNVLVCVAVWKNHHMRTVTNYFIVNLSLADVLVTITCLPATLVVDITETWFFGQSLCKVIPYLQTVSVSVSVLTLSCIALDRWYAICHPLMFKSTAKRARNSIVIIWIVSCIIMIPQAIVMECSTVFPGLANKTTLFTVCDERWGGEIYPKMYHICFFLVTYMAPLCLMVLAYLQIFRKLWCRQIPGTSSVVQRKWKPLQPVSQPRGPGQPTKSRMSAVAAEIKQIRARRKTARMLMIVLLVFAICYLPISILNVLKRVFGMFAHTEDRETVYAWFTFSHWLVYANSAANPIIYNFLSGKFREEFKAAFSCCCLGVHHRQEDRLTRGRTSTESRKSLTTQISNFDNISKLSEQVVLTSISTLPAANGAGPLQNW
T1 sequence (O43613 whole entry): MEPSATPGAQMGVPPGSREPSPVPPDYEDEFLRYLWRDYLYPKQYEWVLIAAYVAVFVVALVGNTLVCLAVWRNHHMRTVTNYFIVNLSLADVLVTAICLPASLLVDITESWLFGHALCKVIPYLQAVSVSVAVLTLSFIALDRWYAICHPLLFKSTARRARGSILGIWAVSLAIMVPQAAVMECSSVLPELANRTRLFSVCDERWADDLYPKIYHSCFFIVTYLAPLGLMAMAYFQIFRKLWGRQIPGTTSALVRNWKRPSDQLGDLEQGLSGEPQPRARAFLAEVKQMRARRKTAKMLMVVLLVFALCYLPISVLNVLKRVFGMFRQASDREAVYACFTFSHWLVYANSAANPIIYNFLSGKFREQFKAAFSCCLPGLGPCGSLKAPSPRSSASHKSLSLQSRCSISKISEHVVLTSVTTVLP

As usually defined, the Kd is the constant that tells how readily two partners part at equilibrium. For orientation: Ki means the equilibrium dissociation constant of an inhibitor or competing ligand from its target. Turning to `COc1cc2c(cc1OC)C(NC(=O)COc1cc(C)c3c(C4CC4)nn(C)c3n1)CC2` (centres unmarked) [Example 7.1, 2-(3-cyclopropyl-1,4-dimethyl-1H-pyrazolo[3,4-b]pyridin-6-yloxy)-N-(5,6-dimethoxy-2,3-dihydro-1H-inden-1-yl)acetamide], the Kd amounted to 55 nM on human orexin 1 receptors [1] and 65 nM on human orexin 2 receptors [2]. For the same compound, the Ki at human orexin 1 receptors [3] is 140 nM; on human orexin 2 receptors [4], 52 nM.
For `Cc1ccc(C(C)(C)NC(=O)COc2cc(C)c3c(C4CC4)nn(C)c3n2)cc1` [Example 6.6, 2-(3-cyclopropyl-1,4-dimethyl-1H-pyrazolo[3,4-b]pyridin-6-yloxy)-N-(2-p-tolylpropan-2-yl)acetamide] the same measures were 1010 nM, 138 nM, 606 nM and 47 nM.
Regarding `Cc1nn(C)c(C)c1C(C)NC(=O)COc1cc(C(F)F)c2c(-c3ccccc3)nn(C)c2n1` (centres unmarked) [Example 6.20, 2-(4-(difluoromethyl)-1-methyl-3-phenyl-1H-pyrazolo[3,4-b]pyridin-6-yloxy)-N-(1-(1,3,5-trimethyl-1H-pyrazol-4-yl)ethyl)acetamide], the Kd on human orexin 1 receptors [1] was 22 nM; at human orexin 2 receptors [2] it was 90 nM. Besides, the Ki was 63 nM at human orexin 1 receptors [3] and 59 nM at human orexin 2 receptors [4].
For `COc1ccc([C@H](C)NC(=O)COc2cc(C(F)F)c3c(C4CC4)nn(C)c3n2)cc1` [Example 6.7, (S)-2-(3-cyclopropyl-4-(difluoromethyl)-1-methyl-1H-pyrazolo[3,4-b]pyridin-6-yloxy)-N-(1-(4-methoxyphenyl)ethyl)acetamide] the same measures were 36 nM, 27 nM, 68 nM and 21 nM.
For `COc1ccc([C@H](C)NC(=O)COc2cc(C(F)(F)F)c3c(-c4cc(C)oc4C)nn(C)c3n2)cc1` [Example 6.80, (S)-2-(3-(2,5-dimethylfuran-3-yl)-1-methyl-4-(trifluoromethyl)-1H-pyrazolo[3,4-b]pyridin-6-yloxy)-N-(1-(4-methoxyphenyl)ethyl)acetamide] the same measures were 12 nM, 32 nM, 6 nM and 7 nM.
Taken in the same sequence, the figures for `Cc1ccc([C@H](C)NC(=O)COc2cc(C(F)F)c3c(C4CC4)nn(C)c3n2)cc1` [Example 6.8, (S)-2-(3-cyclopropyl-4-(difluoromethyl)-1-methyl-1H-pyrazolo[3,4-b]pyridin-6-yloxy)-N-(1-p-tolylethyl)acetamide] were 22 nM, 19 nM, 14 nM and 5 nM.
As for `Cc1ccc2c(n1)CC[C@@H]2NC(=O)COc1cc(C(F)F)c2c(C3CC3)nn(C)c2n1` [Example 6.2, (S)-2-(3-cyclopropyl-4-(difluoromethyl)-1-methyl-1H-pyrazolo[3,4-b]pyridin-6-yloxy)-N-(2-methyl-6,7-dihydro-5H-cyclopenta[b]pyridin-5-yl)acetamide], the Kd at human orexin 1 receptors [1] was 61 nM; on human orexin 2 receptors [2], 75 nM. Also, the results for the Ki at human orexin 1 receptors [3] and at human orexin 2 receptors [4] were 284 nM and 50 nM, respectively.
As for `Cc1ccc([C@H](C)NC(=O)COc2cc(C)c3c(-c4cncs4)nn(C)c3n2)cc1` [Example 5.4, (S)-2-(1,4-dimethyl-3-(thiazol-5-yl)-1H-pyrazolo[3,4-b]pyridin-6-yloxy)-N-(1-p-tolylethyl)acetamide], the Kd on human orexin 1 receptors [1] turned out to be 46 nM; on human orexin 2 receptors [2], 26 nM. Moreover, the Ki at human orexin 1 receptors [3] was 179 nM; on human orexin 2 receptors [4], 11 nM.
Consider `Cc1ccc([C@H](C)NC(=O)COc2ccc3c(C(C)(C)C)nn(C)c3n2)cc1` [Example 6.25, (S)-2-(3-tert-butyl-1-methyl-1H-pyrazolo[3,4-b]pyridin-6-yloxy)-N-(1-p-tolylethyl)acetamide], for which the Kd was determined as 242 nM at human orexin 1 receptors [1] and 164 nM on human orexin 2 receptors [2]. Also, the Ki turned out to be 545 nM at human orexin 1 receptors [3] and 65 nM at human orexin 2 receptors [4].
Consider `Cc1ccc([C@H](C)NC(=O)COc2cc(C)c3c(-c4ncccn4)nn(C)c3n2)cc1` [Example 4.7, (S)-2-(1,4-dimethyl-3-(pyrimidin-2-yl)-1H-pyrazolo[3,4-b]pyridin-6-yloxy)-N-(1-p-tolylethyl)acetamide], for which the values for the Kd at human orexin 1 receptors [1] and at human orexin 2 receptors [2] were 11 nM and 13 nM, respectively. Moreover, the Ki worked out at 4 nM on human orexin 1 receptors [3] and 9 nM at human orexin 2 receptors [4].
On to `Cc1ccc([C@H](C)NC(=O)COc2cc(C)c3c(-c4nccs4)nn(C)c3n2)cc1` [Example 5.2, (S)-2-(1,4-dimethyl-3-(thiazol-2-yl)-1H-pyrazolo[3,4-b]pyridin-6-yloxy)-N-(1-p-tolylethyl)acetamide], for which the Kd at human orexin 1 receptors [1] and at human orexin 2 receptors [2] was 3 nM each time. The results for the Ki on human orexin 1 receptors [3] and on human orexin 2 receptors [4] were 6 nM and 1 nM, respectively.
As to `CCOc1ccc2c(c1)CC[C@@H]2NC(=O)COc1cc(C)c2c(C3CC3)nn(C)c2n1` [Example 6.68, (S)-2-(3-cyclopropyl-1,4-dimethyl-1H-pyrazolo[3,4-b]pyridin-6-yloxy)-N-(5-ethoxy-2,3-dihydro-1H-inden-1-yl)acetamide], the Kd at human orexin 1 receptors [1] stood at 52 nM; at human orexin 2 receptors [2], 317 nM. Also, the figures for the Ki on human orexin 1 receptors [3] and on human orexin 2 receptors [4] were 71 nM and 151 nM, respectively.
On to `Cc1ccc([C@H](C)NC(=O)COc2cc(C(F)F)c3c(-c4ccccc4)nn(C)c3n2)cc1` [Example 6.21, (S)-2-(4-(difluoromethyl)-1-methyl-3-phenyl-1H-pyrazolo[3,4-b]pyridin-6-yloxy)-N-(1-p-tolylethyl)acetamide], for which the Kd stood at 37 nM at human orexin 1 receptors [1] and 30 nM on human orexin 2 receptors [2]. Also, the figures for the Ki on human orexin 1 receptors [3] and on human orexin 2 receptors [4] were 29 nM and 7 nM, respectively.
With `Cc1ccc([C@H](C)NC(=O)COc2cc(C)c3c(-c4cccc(C)n4)nn(C)c3n2)cc1` [Example 5.7, (S)-2-(1,4-dimethyl-3-(6-methylpyridin-2-yl)-1H-pyrazolo[3,4-b]pyridin-6-yloxy)-N-(1-p-tolylethyl)acetamide], the Kd at human orexin 1 receptors [1] was 10 nM; at human orexin 2 receptors [2], 21 nM. Besides, the Ki on human orexin 1 receptors [3] was found to be 46 nM; at human orexin 2 receptors [4], 56 nM.
Taken in the same sequence, the figures for `Cc1cc(OCC(=O)NC(C)c2cnc3[nH]ccc3c2)nc2c1c(C1CC1)nn2C` (centres unmarked) [Example 6.57, N-(1-(1H-pyrrolo[2,3-b]pyridin-5-yl)ethyl)-2-(3-cyclopropyl-1,4-dimethyl-1H-pyrazolo[3,4-b]pyridin-6-yloxy)acetamide] were 358 nM, 170 nM, 658 nM and 77 nM.
Take `Cc1ccc2c(n1)CCC2NC(=O)COc1cc(C)c2c(C3CC3)nn(C)c2n1` (centres unmarked) [Example 6.61, 2-(3-cyclopropyl-1,4-dimethyl-1H-pyrazolo[3,4-b]pyridin-6-yloxy)-N-(2-methyl-6,7-dihydro-5H-cyclopenta[b]pyridin-5-yl)acetamide]: the Kd on human orexin 1 receptors [1] is 157 nM; at human orexin 2 receptors [2], 159 nM. The Ki came to 227 nM at human orexin 1 receptors [3] and 93 nM on human orexin 2 receptors [4].
As to `Cc1ccc2c(n1)CC[C@@H]2NC(=O)COc1cc(C)c2c(C3CC3)nn(C)c2n1` [Example 6.63, (S)-2-(3-cyclopropyl-1H-dimethyl-1H-pyrazolo[3,4-b]pyridin-6-yloxy)-N-(2-methyl-6,7-dihydro-5H-cyclopenta[b]pyridin-5-yl)acetamide], the values for the Kd at human orexin 1 receptors [1] and on human orexin 2 receptors [2] were 54 nM and 42 nM, respectively. For the same compound, the Ki was found to be 109 nM at human orexin 1 receptors [3] and 22 nM at human orexin 2 receptors [4].
